Patent US7998754B2, “In vitro method for the simultaneous detection and identification of antibiotics of different classes and corresponding diagnostic kit” (Unisensor S.A., priority 2005, dated 2011)
Where two headings read alike, the source gives them in different places.

Experiments:
[1] = biological target: T1, β-lactame receptor (RSA) (Staphylococcus aureus, UniProt P18357); assay type: binding; details: milk; for Intensity ratio of parameter/control zone: at the detection limit concentration; for Detection limit: Concentration: β-lactames, positive when ratio test/control <= 1
T1 construct: made in house
T1 sequence (P18357 331-585 limits assumed): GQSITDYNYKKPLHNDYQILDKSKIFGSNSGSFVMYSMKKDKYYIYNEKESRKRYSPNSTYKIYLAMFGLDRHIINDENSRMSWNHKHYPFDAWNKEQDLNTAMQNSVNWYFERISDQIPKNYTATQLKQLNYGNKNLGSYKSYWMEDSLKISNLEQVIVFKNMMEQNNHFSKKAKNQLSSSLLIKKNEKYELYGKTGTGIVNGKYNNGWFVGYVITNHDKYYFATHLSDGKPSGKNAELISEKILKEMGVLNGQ
Source text: (§1) For the detection of β-lactames, the reactive mixture comprises the specific receptor for recognising β-lactames, its specific antibody and a preparation of protein A conjugated with colloidal gold. For the detection of tetracyclines, the reactive mixture comprises the receptor of the tetracyclines, its specific antibody, a specific fragment of DNA conjugated with biotin and a preparation of protein A conjugated with colloidal gold.
(§2) The β-lactame receptor is obtained by the method described by Golemi-Kotra et al.^(6) The unpurified receptor is filtered on a Millex HV membrane (Millipore, Inc., USA) before it is stored at 4° C. in the presence of glycerol at 50% v/v.
(§3) This mixture is either prepared as required or lyophilisated for 20 hours. The Recovery System
(§4) The recovery system comprises a nitrocellulose membrane on which are fixed, at distinct points, the elements capable of forming a complex with the recognition molecules of the reactive mixture. These elements are: • for the “beta” signal (for β-lactame), an antibiotic, preferably of penicillin or cephalosporine type, fixed to a molecule with no particular reactivity to protein A, biotin or avidine. […] An egg-white avidine is preferably used.
(§5) In the case of a detection of two parameters, the preparations of β-lactoglobulin and avidine will be deposited on each side of the control line. For example, the β-lactoglobulin conjugate already prepared will be deposited below the control line and the neutralized avidine solution will be deposited above the control line (FIG. 1).
(§6) 200 μL of cold milk are incubated at 50° C. in the presence of 50 μl of the reagents prepared and/or lyophilisated as above. After 3 minutes of incubation at 50° C., the above-described recovery element is immersed in the solution. The final interpretation is made after 3 minutes of incubation by means of an optical dipstick reader available at Matest (Germany);
(§7) As a general rule, when the ratio of the intensities of the concerned test signal relative to the control signal is less than or equal to 1, the sample is considered positive for the parameter (compound) concerned.

[2] = biological target: T1, β-lactame receptor (RSA); assay type: binding; details: milk; for Ratio test/control: at the detection limit concentration; for Concentration detection limit: β-lactames, three-parameter test
Procedure: This mixture is prepared either as required or lyophilisated for 20 hours. The Recovery System
The other capture zones are identical but differently positioned, as in FIG. 2.
A single control zone serves as a reference for the three markers.
as §6, with “(Germany).” for “(Germany);”
As a general rule, if the ratio of the intensities of the concerned test signal relative to the control signal is less than or equal to 1, the sample is considered as positive for the parameter (compound) concerned.

[3] = cited from earlier work; for MRL/EU: maximum residue level, European Union
[4] = system: tetracycline receptor (TetR); assay: Example 1 dipstick test in milk, "tetra" capture zone (format 1); assay type: binding, E. Coli
Source text: In addition, the recovery system is a specific and biotinylated fragment of DNA that can be fixed on a molecule of avidine attached to a nitrocellulose membrane. […] In this case, the fragment of DNA forms a complex with the receptor and a signal generated by the gold particles attached to the receptor appears.
as §1, §2
The DNA fragment is obtained at Eurogentec SA, Belgium according to the sequence and preparation described in patent application WO-A-03/048770. In this precise case, the DNA fragment is not fixed to a capture point on a nitrocellulose membrane but it is directly incorporated into the reactive mixture. This fragment will be recovered in testo by means of its biotinylated end on avidine fixed to a capture point (see below).
as §3, §4, §5, §6, §7

| Compound | Intensity ratio of parameter/control zone [1] | Detection limit: Concentration [1] | Ratio test/control [2] | Concentration detection limit [2] | Safe level/US [3] | MRL/EU [3] | further results |
| --- | --- | --- | --- | --- | --- | --- | --- |
| CC1(C)S[C@@H]2[C@H](NC(=O)[C@H](N)c3ccc(O)cc3)C(=O)N2[C@H]1C(=O)O [Amoxicillin] | 0.4 | 4 ppb | 0.4 | 4 ppb | 10 ppb | 4 ppb |  |
| CC1(C)S[C@@H]2[C@H](NC(=O)[C@H](N)c3ccccc3)C(=O)N2[C@H]1C(=O)O [Ampicillin] |  | 4 ppb |  | 4 ppb |  |  | Intensity: zone B ([1]; Ampi 1 ppb): 380; Intensity: zone B ([1]; Ampi 2 ppb): 250; Intensity: zone B ([1]; Ampi 3 ppb): 155; Intensity: zone B ([1]; Ampi 4 ppb + Tetra 75 ppb together): 122; Intensity: zone B ([1]; Ampi 4 ppb): 105; Intensity: zone B ([1]; Ampi 5 ppb): 55; Intensity: zone B ([1]; Ampi 10 ppb): 25; Intensity: zone T ([4]; Ampi 1 ppb): 380; Intensity: zone T ([4]; Ampi 2 ppb): 405; Intensity: zone T ([4]; Ampi 3 ppb): 408; Intensity: zone T ([4]; Ampi 4 ppb): 386; Intensity: zone T ([4]; Ampi 5 ppb): 397; Intensity: zone T ([4]; Ampi 10 ppb): 414 |
| CC1(C)S[C@@H]2[C@H](NC(=O)Cc3ccccc3)C(=O)N2[C@H]1C(=O)O [Benzylpenicillin] |  | 2 ppb |  | 2 ppb |  |  |  |
| CO/N=C(\C(=O)N[C@@H]1C(=O)N2C(C(=O)O)=C(CSC(=O)c3ccco3)CS[C@H]12)c1csc(N)n1 [Ceftiofur] | 0.5 | 10 ppb | 0.5 | 10 ppb | 50 ppb | 100 ppb |  |
| CC(=O)OCC1=C(C(=O)O)N2C(=O)[C@@H](NC(=O)CSc3ccncc3)[C@H]2SC1 [Cephapyrin] | 0.3 | 8 ppb | 0.3 | 8 ppb | 20 ppb | 60 ppb |  |
| CN(C)[C@@H]1C(O)=C(C(N)=O)C(=O)[C@@]2(O)C(O)=C3C(=O)c4c(O)ccc(Cl)c4[C@@](C)(O)[C@H]3C[C@@H]12 [Chlortetracycline] |  |  |  |  | 300 ppb | 100 ppb |  |
| C[C@H]1c2cccc(O)c2C(=O)C2=C(O)[C@]3(O)C(=O)C(C(N)=O)=C(O)[C@@H](N(C)C)[C@@H]3[C@@H](O)[C@@H]21 [Doxycycline] |  |  |  |  | 300 ppb | 100 ppb |  |
| CN(C)[C@@H]1C(O)=C(C(N)=O)C(=O)[C@@]2(O)C(O)=C3C(=O)c4c(O)cccc4[C@@](C)(O)[C@H]3[C@H](O)[C@@H]12 [Oxytetracycline] |  |  |  |  | 300 ppb | 100 ppb |  |
| CN(C)[C@@H]1C(O)=C(C(N)=O)C(=O)[C@@]2(O)C(O)=C3C(=O)c4c(O)cccc4[C@@](C)(O)[C@H]3C[C@@H]12 [Tetracycline] |  |  |  |  | 300 ppb | 100 ppb |  |
| Cloxacycline | 0.5 | 10 ppb | 0.5 | 10 ppb | 10 ppb | 30 ppb |  |
